{"source": "patent US20050124618A1", "about": "“Methods of modulating angiogenesis and cancer cell proliferation” (priority 2003, published 2005)", "key": {"[1]": {"tested_on": "primary human keratinocytes", "experiment": "Proliferation of primary human keratinocytes (comparison with U251)", "format": "cell-based", "conditions": "10 μM HET0016, 48 hrs; DDMS concentration not given", "method": "Mean values±SD from three separate experiments, each performed in triplicate, are presented. *** indicates p<0.001 from the respective control values.\nCell Proliferation Assays: Proliferation studies were performed with cultures plated at a density that ensured exponential growth for at least 5 days. Growth medium was generally replaced by serum-free medium 24 hr after plating. Cells were treated with various concentrations of a given compounds for 24 or 48 hr as described in the Methods. […] Organic solvent never exceeded 0.1% of total culture volume. Cells were harvested by exposure to 0.05% trypsin/EDTA and counted using a hemocytometer."}, "[2]": {"tested_on": "phospho-tyrosine and phospho-Ser/Thr-Pro proteins", "experiment": "Western blot of tyrosine and serine/threonine protein phosphorylation in U251 cells", "format": "cell-based, human", "method": "They were then pelleted by centrifugation at 1,000 g for 5 min at 4° C. Cells were lysed by adding RIPA buffer [20 mM HEPES (pH 7.4), 100 mM NaCl, 1% Nonidet P-40, 0.1% SDS, 1% deoxycholic acid, 10% glycerol, 1 mM EDTA, 1 mM NaVO3, 50 mM NaF, and Protease Inhibitors Set 1 (Calbiochem, La Jolla, Calif.)]. Plates were then scraped and cells collected in a 1.5-ml centrifuge tube, followed by incubation on ice for 30 min. Homogenates of the cell suspension were centrifuged for 10 min at 14,000 g and 4° C.; the pellets were discarded and protein concentrations in the supernatant determined by bicinchoninic acid (BCA) protein assay.\nTypically, 20 μg of protein was separated on a 14% Tris-glycine gel (Invitrogen) and electroblotted on a PVDF membrane (Biotrace, Bothell, Wash.). Membranes were blocked for 1 h at room temperature with blocking buffer [0.2% I-Block reagent (Tropix, Bedford, Mass.), 0.1% Tween-20 in […]] before incubation with primary antibodies in blocking buffer (overnight at 4° C.). […] Both phospho-tyrosine (Y102) and phospho-serine/threonine-Pro MPM2 were detected using a 1:2000 dilution of the corresponding antibodies, whereas phospho-p44/p42MAPK and phospho-SAPK/JNK were detected using 1:1000 antibody dilutions. […]"}, "[3]": {"tested_on": "extensor digitorum longus (EDL) and tibialis anterior (TA) muscles", "experiment": "Vessel density of EDL and TA muscles after 7 days of electrical stimulation", "format": "in vivo, rat", "method": "Experimental protocols and tissue preparation: After a 24-h recovery period, the implanted stimulator was activated by momentary closure of the magnetic reed switch using a small hand-held magnet. […] Contractions of the extensor digitorum longus (EDL) and tibialis anterior (TA) muscles were automatically initiated at 9 AM each day and sustained for 8 h/day over a consecutive 7-day period. At the end of the stimulation period, the animals were euthanized by an overdose of pentobarbital sodium (100 mg/kg ip), and the EDL and TA muscles were harvested for analysis as previously described (Greene A S et al., Hypertension 15: 779-783, 1990; and Parmentier J H et al., Hypertension 37: 623-629, 2001).\nTissue harvest and morphological analysis of vessel density: The stimulated and contralateral muscles were removed, weighed, and rinsed in physiological salt solution. A 300-mg sample was taken from the rostral portion of the TA muscle and frozen in liquid nitrogen for Western blot (100 mg) and HPLC (200 mg) analysis for measurement of VEGF protein expression and 20-HETE formation, respectively. The remaining TA and EDL muscles were lightly fixed in a 0.25% formalin solution overnight. The muscles were sectioned via a manual microtome to a thickness of about 100 μm by securing the tendons and slicing parallel to the longitudinal orientation of the muscle fibers. From every animal, two slices of each EDL muscle and three slices of each TA muscle were made. The slices were than immersed for 2 h in a solution of 25 μg/ml rhodamine-labeled Griffonia simplicifolia I (GS-I) lectin (Sigma; St. Louis, Mo. (Greene A S et al., Hypertension 15: 779-783, 1990)). Immediately after this 2-h exposure to GS-I lectin, the muscles were rinsed in physiological solution. The rinsing procedure was repeated after 15 and 30 min, and the muscles were rinsed in physiological saline solution for 12 h (overnight, at 4° C.). On the next day, the slices were mounted on microscope slides with a water-soluble mounting medium consisting of toluene and acrylic resin (SP ACCU-MOUNT 280, Baxter Scientific).\nThe labeled sections were visualized using a video fluorescent microscope system (Olympus ULWD CD Plan, ×20 objective, 1.6 cm working distance and 0.4 numerical aperture) with epi-illumination, as previously described (Parmentier J H et al., Hypertension 37: 623-629, 2001). In the present study, 10-15 and 20-25 representative fields were selected for study from each EDL and TA muscle slice, respectively. Each field was converted to a digitized image (DT2801 Data Translation; Marlboro, Mass.) and stored as an 8-bit/pixel image file with a resolution of 512×512 pixels. Morphometric analysis of the scanned histochemical sections was done as previously described (Parmentier J H et al., Hypertension 37: 623-629, 2001).\nData analysis and statistics: For each muscle, the vessel counts of all the selected fields (10-15 scans×2 slices for each EDL muscle; 20-25 scans×3 slices for each TA muscle) were averaged to a single vessel density. Vessel density was expressed in terms of the mean number of vessel-grid intersections per microscope field (0.224 mm^2). For each experimental group, the measured vessel density and 20-HETE formation of the stimulated muscle was compared with its unstimulated counterpart as well as with age-matched controls. All values are presented as means±SE. The significance of differences in values measured in the same animal was evaluated using a two-factor ANOVA (drug×stimulation) with repeated measures on one factor (stimulation). Significant differences were further investigated using a post hoc test (Tukey's)."}, "20-HETE": {"tested_on": "20-HETE", "conditions": "cited from earlier work"}, "[4]": {"conditions": "chronic treatment, 7 days electrical stimulation"}}, "note": "Entries after “also recorded” stand apart in the source; their conditions may differ.", "data": [{"smiles": "CCCCc1ccc(N=CNO)c(C)c1", "note": "[HET0016, N-hydroxy-N′-(4-butyl-2 methylphenyl) formamidine]", "values": [{"measurement": "effect on basal growth or proliferation of primary human keratinocytes", "setting": "[1]", "value": "Neither DDMS or HET0016 had any effect; also recorded: had no effect on the basal growth or proliferation; also recorded: had no effect on the proliferation"}, {"measurement": "serine/threonine phosphorylation of proteins", "setting": "[2]; 10 μM HET0016", "value": "no significant changes"}, {"measurement": "tyrosine phosphorylation of proteins", "setting": "[2]; 10 μM HET0016, 24 and 48 hr", "value": "inhibition which was seen at 24 and 48 hr; also recorded: significant decreases at 24 and 48 hr"}, {"measurement": "effect on the increase in vessel density (angiogenesis) induced by electrical stimulation", "setting": "[3]; 7 days, HET0016 2 mg kg−1 day−1, ABT 50 mg kg−1 day−1", "value": "completely blocked"}, {"measurement": "vessel density, EDL, unstimulated side", "setting": "[3]; chronic treatment, 7 days", "value": "116.0±1.0 number of vessel intersections"}, {"measurement": "vessel density, TA, unstimulated side", "setting": "[3]; chronic treatment, 7 days", "value": "105.7±4.9 number of vessel intersections"}, {"measurement": "vessel density, EDL, stimulated side", "setting": "[3]; [4]", "value": "118.0±10.1 number of vessel intersections"}, {"measurement": "vessel density, TA, stimulated side", "setting": "[3]; [4]", "value": "110.5±1.1 number of vessel intersections"}, {"measurement": "ability to reduce 20-HETE levels in vivo", "setting": "20-HETE", "value": "reduce 20-HETE levels in vivo"}]}]}
